Experimental data published in ChEMBL document CHEMBL1151295, “11-Methoxy-macusine A. A new quaternary alkaloid from Strychnos angolensis” (1983).

Assay: Muscle relaxant activity in rat diaphragm assessed as inhibition of electrically-stimulated contraction
Assay type: functional

C/C=C1/C[N+]2(C)[C@H]3C[C@@H]1[C@@](CO)(C(=O)OC)[C@@H]2Cc1c3[nH]c2cc(OC)ccc12 [11-METHOXY MACUSINE A]
Activity: 0.16 mg/kg
